In experiment [1] the test system is CIC-1 inhibited rat soleus muscles. Briefly: Myotonia (tail AUC of force response) in 9AC-treated isolated rat soleus muscle. To be noted: for EC50: Rattus norvegicus; for Ability to abolish myotonia / Slope of fit: rat soleus; for Ability to abolish myotonia: 9AC, increasing concentrations; for Reduction of myotonia within clinically observed concentration ranges: isolated muscle, species not stated at this place (study on rat and human); for Slope of fit: 3-parameter sigmoidal fit of AUC vs concentration.

Another experiment relates to rat EDL muscles. Briefly: LDH release from stimulated 9AC-treated (myotonic) rat EDL muscles. The following applies: stimulation for 60 min, LDH followed 3 hrs after contraction. It is filed as cell-based. The method, then: In all cases a sample was taken before stimulation (Pre), the muscles were then stimulated to contraction for 2 s at 30 Hz by 0.2 ms pulses every 3 minutes for 60 min (20 stimulations) or left resting. Open symbols are from muscles incubated with 9AC±LTG or RUF. Solid triangles are from muscles incubated with 9AC without stimulation. Immediately after cessation of stimulation, a new sample was taken from solution incubating the muscles. For the next 180 minutes a sample was taken from the incubating solution every 30 minutes, as designated by the time after stimulation. The period from cessation of stimulation to 180 min after stimulation is termed recovery.
EDL muscles from rats were isolated and placed in small chambers with oxygenated as previously described in detail (Gissel H1, Clausen T. Excitation-induced Ca(2+) influx in rat soleus and EDL muscle: mechanisms and effects on cellular integrity. Am J Physiol Regul Integr Comp Physiol. 2000 279(3): R917-24).
To explore for an effect of myotonia on muscle fibre integrity and the effect of the drugs hereupon, the release of the intracellular protein from the muscle, lactate dehydrogenase (LDH), to the incubation solution was determined in contracting EDL muscles.
Background: LDH leaks from cells whose membrane has failed.

Experiment [2] deals with non-myotonic rat soleus muscles. Briefly: Contractile force in non-myotonic isolated rat soleus muscles. It is filed as cell-based. The following applies: three hrs incubation, 5 and 60 Hz stimulation, similar to time-matched controls. As for the experimental part: To first test for effects of the three drugs (RUF, LCM and LTG) on force in non-myotonic rat soleus muscles, muscles were exposed to 2 s stimulations at both 5 Hz and 60 Hz every 10 mins during three hrs of drug incubation. The drug concentrations were the highest free concentrations that are tolerated clinically: For both 5 and 60 Hz stimulation, incubation with 5 μM LCM reduced force by ˜6-8% in two muscles. With 25 μM LTG force was reduced by ˜6% in three muscles, and with 100 μM RUF force was reduced by 4% in three muscles. In all cases, these reductions in force during the three hours were similar to reductions observed in time-matched control muscles.

Experiment [3] relates to isolated human abdominal rectus muscle. Briefly: Myotonia (tail AUC) in 9AC-treated bundles of isolated human abdominal rectus muscle. It is filed as cell-based. The following applies: for EC50: Homo sapiens, read-out: EC50 (concentration required to reduce AUC to 50% of maximal value); for Slope of fit: human muscle bundles, 3-parameter sigmoidal fit, mean ± SEM; for Ability to abolish myotonia: isolated human muscles, 9AC, increasing concentrations. As for the experimental part:
As in rat muscles myotonia was induced with 9-AC and quantified from the AUC as determined from the cessation of stimulation to force returned to baseline. […] C and D show similar data for RUF (n=4) and LTG (n=6), respectively.
The use of human muscles was approved by the Danish Ethics Committee, Region Midtjylland, Comité I (reference number Jan. 10, 1972-20-13) and was performed in accordance with the Helsinki Declaration. Informed consent was obtained from all subjects before inclusion. Muscles were obtained from 4 male subjects admitted in relation to planned aortic aneurysm surgery at Skejby hospital. […] After isolation the tissue was transported to the laboratory at the University (<30 min) in a HEPES based solution (pH 7.4) at ˜5° C. Upon arrival to the laboratory, the tissue was incubated in often-replaced fresh Krebs-Ringer bicarbonate solution equilibrated with 5% CO2 in oxygen at 30° C. for 10 to 20 min, before further dissection into smaller bundles of approx. 4 cm length weighing 515±61 mg. For contraction experiments, bundles were tied at both ends with polyester string, to enable mounting of the preparations in the setups for measurement of contractile force.
The experiments in FIG. 1 were repeated for small muscle bundles of human abdominal muscle. 9AC was used to induce myotonia and, subsequently, LCM, RUF or LTG were added at increasing concentrations. In all cases, myotonia was reduced with increased concentration of drug. […] Similar traces were obtained with LCM-and LTG-treated bundles of human muscle. FIG. 2B-D show data and sigmoidal fits from individual bundles with additions of LCM (n=5), RUF (n=5) and LTG (n=6), respectively.

Setting [4] is: 10 min, read-out: EC50 (reduction of AUC), rat soleus, 100 μM 9AC, 15 Hz 2 s every 10 min, two muscles per compound.
Where [5] appears, read: read-out: EC50 (concentration required to reduce AUC to 50% of maximal value), rat soleus, 100 μM 9AC, 15 Hz 2 s stimulation, 3-parameter sigmoidal fit, mean ± SEM, Table 1 prints no unit, b139 gives concentrations in μM.

Read-outs that look alike come from different tables or passages of the source.

With `NC(=O)c1nnn(Cc2ccccc2)c1N` [Compound 1, 5-amino-1-benzyl-1H-1,2,3-triazole-4-carboxamide], the EC50 in experiment [1] (setting [4]) amounted to 24.7 µM. Moreover, the “Ability to abolish myotonia” value in experiment [1] is listed as “completely abolish myotonia”.

`Cc1c(C(N)=O)nnn1Cc1ccccc1` [Compound 2, 1-benzyl-5-methyl-1H-1,2,3-triazole-4-carboxamide]: in experiment [1] (setting [4]), the EC50 came to 19.1 µM. Moreover, the “Ability to abolish myotonia” value in experiment [1] is reported as “completely abolish myotonia”.

For the compound `Nc1nnc(-c2cccc(Cl)c2Cl)c(N)n1` [Lamotrigine, 6-(2,3-dichlorophenyl)-1,2,4-triazine-3,5-diamine], the “Effect on myotonia-induced LDH release (muscle damage)” value in the experiment on rat EDL muscles is listed as “Very similar effects”. In addition, the Reduction of force in experiment [2] (25 μM LTG) is reported as about 6%. The EC50 in experiment [3] stood at 5.54 ± 0.88 µM; in experiment [1] (setting [5]), 1.52 ± 0.13 µM. Further, the Slope of fit in experiment [3] is reported as −0.30 ± 0.068; in experiment [1] (mean ± SEM), −0.39 ± 0.042. Also, the “Ability to abolish myotonia” value in experiment [3] and in experiment [1] was “completely abolish myotonia” each time. For the same compound, the “AUC as % of the full myotonic state” value in experiment [1] (0.5 μM LTG (FIG. 3 A3)) is 90%. Besides, the “Reduction of AUC (myotonia)” value in experiment [1] (2 μM LTG (FIG. 1 C3)) is about 46%; in experiment [1] (16 μM LTG (FIG. 1 C4)) it was about 98%. In addition, the “Reduction of myotonia within clinically observed concentration ranges” value in experiment [1] amounted to 92±2%.

As for `NC(=O)c1cn(Cc2c(F)cccc2F)nn1` [Rufinamide, 1-(2,6-Difluorobenzyl)-1H-1,2,3-triazole-4-carboxamide], the “Effect on myotonia-induced LDH release (muscle damage)” value in the experiment with rat EDL muscles was “completely blocked”. In experiment [2] (100 μM RUF), this compound had a Reduction of force of 4%. The Effect on myotonia result in experiment [3] (80 μM RUF, single human muscle bundle, 100 μM 9AC (FIG. 2A)) was “almost full abolishment of myotonia”. For the same compound, the EC50 in experiment [3] was determined as 22.5 ± 1.73 µM; in experiment [1] (setting [5]) it was 18.1 ± 1.84 µM; in experiment [1] (read-out: RUF concentration for AUC to be reduced by 50%, in presence of 0.5 μM LTG (n=6)) it was 7 µM; in experiment [1] (read-out: RUF concentration for AUC to be reduced by 50%, pre-incubation with 1 μM LTG (n=4)) it was 3.1 µM. The Slope of fit in experiment [3] is on record as −0.33 ± 0.035; in experiment [1] (mean ± SEM) it was −0.29 ± 0.02. The “Ability to abolish myotonia” value in experiment [3] and in experiment [1] was “completely abolish myotonia” in each case. Also, the “Reduction of AUC (myotonia)” value is “more than 50%” in experiment [1] (20 μM RUF, 9AC treated muscle (FIG. 1 B3)) and about 98% in experiment [1] (100 μM RUF (FIG. 1 B4)). The “RUF concentration less than expected if RUF and LTG acted purely additively” value in experiment [1] (isobole plot, 0.5 μM LTG) was 5 µM. Besides, the “RUF concentration less than predicted by the assumption of additivity” value in experiment [1] (isobole plot, 1 μM LTG) was 3 µM. Further, the “Reduction of myotonia within clinically observed concentration ranges” value in experiment [1] was 92±2%. Further, in experiment [1] (with 0.5 μM or 1 μM LTG, both cases), the “RUF concentration for half effect as % of concentration expected for additive action” value is “around 50%”.
